Values of other authors, collected in patent US6218375A, “Complex of ras-farnesyltransferase inhibitor and sulfobutylether-7-β-cyclodextrin or 2-hydroxypropyl-β-cyclodextrin and method” (priority 2000, dated 2001).

Experiments:
[1] = by β-cyclodextrin
[2] = by cyclodextrins
[3] = complexes with cyclodextrin derivatives, sublingual or buccal route

Structure (SMILES)	stabilization [1]	water-solubility [2]	elimination [3]	transfer into the systemic circulation [3]
O=[N+]([O-])OCC(CO[N+](=O)[O-])O[N+](=O)[O-] [nitroglycerin]	increases stabilization	–	–	–
C[C@]12CC[C@H]3[C@@H](CCC4=CC(=O)CC[C@@]43C)[C@@H]1CC[C@@H]2O [testosterone]	–	increase water-solubility	only gradual elimination	effective transfer of these hormones into the systemic circulation
C=C1CC[C@H](O)C/C1=C/C=C1\CCC[C@]2(C)[C@@H]([C@H](C)CCCC(C)C)CC[C@@H]12 [vitamin D3]	–	increase water-solubility	–	–
C=CCS[S+]([O-])CC=C (centres unmarked) [allicin]	increases stabilization	–	–	–
CCN(CC)CCOC(=O)C(c1ccccc1)c1ccccc1 [adipherine]	–	increase water-solubility	–	–
COc1ccc2c(c1)c(CC(=O)O)c(C)n2C(=O)c1ccc(Cl)cc1 [indomethacin]	increases stabilization	–	–	–
CCN(CC)CCOC(=O)c1ccc(N)cc1 [procaine]	increases stabilization	increase water-solubility	–	–
CCCCC/C=C\C/C=C\CCCCCCCC(=O)O [linoleic acid]	increases stabilization	–	–	–
CC(=O)Oc1ccccc1C(=O)O [aspirin]	–	increase water-solubility	–	–
CC(C)C12C=CC(C)(CC1)OO2 (centres unmarked) [ascaridole]	increases stabilization	–	–	–
O=C(O)c1ccccc1O [salicyclic acid]	increases stabilization	–	–	–
CCOC(=O)c1ccc(N)cc1 [benzocaine]	increases stabilization	increase water-solubility	–	–
C[C@]12CC[C@@H]3c4ccc(O)cc4CC[C@H]3[C@@H]1CC[C@@H]2O [estradiol]	–	–	only gradual elimination	effective transfer of these hormones into the systemic circulation
CC(=O)[C@H]1CC[C@H]2[C@@H]3CCC4=CC(=O)CC[C@]4(C)[C@H]3CC[C@]12C [progesterone]	–	–	only gradual elimination	effective transfer of these hormones into the systemic circulation
